Literature values as cited in patent US20110008412A1, “Oral Formulations for 5-HT-Receptor Agonists, Uses and Methods of Treatment Employing The Same” (CIPLA LIMITED, priority 2003, published 2011).

CNS(=O)(=O)Cc1ccc2[nH]cc(CCN(C)C)c2c1 [sumatriptan, 3-[2-(dimethylamino)ethyl]-N-methyl-1H-indole-5-methanesulfonamide]
half-life (after subcutaneous and oral application): about 2 hours | bioavailability (injected subcutaneously): 96%
